Read-outs that look alike come from different tables or passages of the source.
Columns and labels:
17β-HSD10 = target: T1, 17β-HSD10 (Homo sapiens, UniProt Q99714); test: Inhibition of 17β-HSD10 in stably transfected HEK-293 whole cells (E2 into E1); type: cell-based; conditions: for IC50: intact transfected HEK-293 cells, E2 1 μM, read-out: IC50
T1 construct: expressed in transfected cells
T1 sequence (Q99714 1-261): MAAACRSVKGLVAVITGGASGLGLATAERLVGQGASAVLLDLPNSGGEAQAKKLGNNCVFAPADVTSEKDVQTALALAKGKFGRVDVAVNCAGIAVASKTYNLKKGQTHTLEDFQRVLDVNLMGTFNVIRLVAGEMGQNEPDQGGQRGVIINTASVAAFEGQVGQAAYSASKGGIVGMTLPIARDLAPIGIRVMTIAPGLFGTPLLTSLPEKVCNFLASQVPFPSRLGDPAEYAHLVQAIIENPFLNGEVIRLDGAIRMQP

17β-HSD3 [1] = target: T2, 17β-HSD3 (Homo sapiens, UniProt P37058); test: Inhibition of 17β-HSD3 in intact HEK-293 cells; type: cell-based; conditions: for inhibition at 0.1 µM: HEK293, 1 h; for Intact cells (%), tested at 1 μM: Table 3, footnote b
T2 construct: expressed in transfected cells; host or cells: HEK-293 (homogenate)
T2 sequence (P37058 1-310): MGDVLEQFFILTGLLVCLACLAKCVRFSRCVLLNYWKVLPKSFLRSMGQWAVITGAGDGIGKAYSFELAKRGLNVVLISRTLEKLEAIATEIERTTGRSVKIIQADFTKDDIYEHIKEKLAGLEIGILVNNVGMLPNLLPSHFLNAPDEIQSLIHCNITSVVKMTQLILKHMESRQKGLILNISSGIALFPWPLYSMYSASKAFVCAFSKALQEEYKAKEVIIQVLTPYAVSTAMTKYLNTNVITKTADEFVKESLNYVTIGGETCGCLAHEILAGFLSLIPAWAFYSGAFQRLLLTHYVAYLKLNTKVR

17β-HSD3 [2] = target: T2, 17β-HSD3; test: Inhibition of 17β-HSD3 in homogenated HEK-293 cells; type: biochemical
[3] = HEK293, [14C]-E2 (1 μM) into [14C]-E1, intact HEK-293 cells, 1 μM, read-out: Inhibition (%) at 1 μM
[4] = Table 3, 0.1 μM, read-out: Intact cells (%) (0.1 μM)
[5] = Table 3, read-out: Homo (%) (0.01 μM)
[6] = Table 3, read-out: Homo (%) (0.1 μM)
[7] = [14C]-E2 (1 μM) into [14C]-E1, intact HEK-293 cells, 1 μM

| SMILES | inhibition at 1 µM (17β-HSD10; [3]) | inhibition at 0.01 µM (17β-HSD3 [2]; [5]) | inhibition at 0.1 µM (17β-HSD3 [2]; [6]) | Intact cells (%), tested at 1 μM (17β-HSD3 [1]) | Inhibition (%) at 1 μM (17β-HSD10; [7]) | Homo (%) (0.01 μM) (17β-HSD3 [2]; Table 3) | Homo (%) (0.1 μM) (17β-HSD3 [2]; Table 3) | also measured |
| --- | --- | --- | --- | --- | --- | --- | --- | --- |
| COc1cccc(CN2CCN(C[C@@]3(O)CC[C@@]4(C)[C@@H](CC[C@@H]5[C@@H]4CC[C@]4(C)C(=O)CC[C@@H]54)C3)CC2)c1 [Compound 10f, (3α,5α)-3-hydroxy-3-{[4-(3-methoxybenzyl)piperazin-1-yl]methyl}androstan-17-one] | 59% | 21% | 83% | – | – | – | – | IC50 (17β-HSD10): 0.55 µM; inhibition at 0.1 µM (17β-HSD3 [1]; [4]): 47% |
| C[C@]12CC[C@](O)(CN3CCN(Cc4cccnc4)CC3)C[C@@H]1CC[C@@H]1[C@@H]2CC[C@]2(C)C(=O)CC[C@@H]12 [Compound 10g, (3α,5α)-3-hydroxy-3-{[4-(pyridin-3-ylmethyl)piperazin-1-yl]methyl}androstan-17-one] | 37% | 10% | 33% | N/A (63)^b % | – | – | – | – |
| CC1CN(C[C@@]2(O)CC[C@@]3(C)[C@@H](CC[C@@H]4[C@@H]3CC[C@]3(C)C(=O)CC[C@@H]43)C2)C(C)CN1Cc1cccc(C(F)(F)F)c1 (stereo partly drawn) [Compound 11a, (3α,5α)-3-({(2ξ,5ξ)-2,5-dimethyl-4-[3-(trifluoromethyl)benzyl]piperazin-1-yl}methyl)-3-hydroxyandrostan-17-one] | – | – | – | N/A (78)^b % | 26% | 31% | 89% | – |
| CC1CN(CC2(O)CCC3(C)C(CCC4C5CCC(=O)C5(C)CCC43)C2)C(C)CN1Cc1ccccc1C(F)(F)F (stereo not drawn) [Compound 11b, (3α,5α)-3-({(2ξ,5ξ)-2,5-dimethyl-4-[2-(trifluoromethyl)benzyl]piperazin-1-yl}methyl)-3-hydroxyandrostan-17-one] | – | – | – | – | 25% | 22% | 85% | Intact cells (%) (0.1 μM) (17β-HSD3 [1]; Table 3, 0.1 μM): 36% |
| CC1CN(C[C@@]2(O)CC[C@@]3(C)[C@@H](CC[C@@H]4[C@@H]3CC[C@]3(C)C(=O)CC[C@@H]43)C2)C(C)CN1Cc1ccc(C(F)(F)F)cc1 (stereo partly drawn) [Compound 11c, (3α,5α)-3-({(2ξ,5ξ)-2,5-dimethyl-4-[4-(trifluoromethyl)benzyl]piperazin-1-yl}methyl)-3-hydroxyandrostan-17-one] | – | – | – | – | 24% | 14% | 87% | Intact cells (%) (0.1 μM) (17β-HSD3 [1]; Table 3, 0.1 μM): 36% |
| CC1CN(C[C@@]2(O)CC[C@@]3(C)[C@@H](CC[C@@H]4[C@@H]3CC[C@]3(C)C(=O)CC[C@@H]43)C2)C(C)CN1Cc1cccc(SC(F)(F)F)c1 (stereo partly drawn) [Compound 11d, (3α,5α)-3-{[(2ξ,5ξ)-2,5-dimethyl-4-{3-[(trifluoromethyl)sulfanyl]benzyl}piperazin-1-yl]methyl}-3-hydroxyandrostan-17-one] | – | – | – | N/A (58)^b % | 27% | 18% | 88% | – |
| CC1CN(C[C@@]2(O)CC[C@@]3(C)[C@@H](CC[C@@H]4[C@@H]3CC[C@]3(C)C(=O)CC[C@@H]43)C2)C(C)CN1Cc1cccc(Cl)c1 (stereo partly drawn) [Compound 11e, (3α,5α)-3-{[(2ξ,5ξ)-4-(3-chlorobenzyl)-2,5-dimethylpiperazin-1-yl]methyl}-3-hydroxyandrostan-17-one] | – | – | – | N/A (55)^b % | 25% | 26% | 84% | – |
| COc1cccc(CN2CC(C)N(C[C@@]3(O)CC[C@@]4(C)[C@@H](CC[C@@H]5[C@@H]4CC[C@]4(C)C(=O)CC[C@@H]54)C3)CC2C)c1 (stereo partly drawn) [Compound 11f, (3α,5α)-3-hydroxy-3-{[(2ξ,5ξ)-4-(3-methoxybenzyl)-2,5-dimethylpiperazin-1-yl]methyl}androstan-17-one] | 21% | 19% | 87% | – | – | – | – | inhibition at 0.1 µM (17β-HSD3 [1]; [4]): 50% |
| CC1CN(CC2(O)CCC3(C)C(CCC4C5CCC(=O)C5(C)CCC43)C2)C(C)CN1Cc1cccnc1 (stereo not drawn) [Compound 11g, (3α,5α)-3-{[(2ξ,5ξ)-2,5-dimethyl-4-(pyridin-3-ylmethyl)piperazin-1-yl]methyl}-3-hydroxyandrostan-17-one] | – | – | – | N/A (58)^b % | 21% | 17% | 47% | – |
| C[C@]12CC[C@](O)(CN3CCN(C(=O)c4ccccc4C(F)(F)F)CC3)C[C@@H]1CC[C@@H]1[C@@H]2CC[C@]2(C)C(=O)CC[C@@H]12 [Compound 12c, (3α,5α)-3-hydroxy-3-[(4-{[2-(trifluoromethyl)phenyl]carbonyl}-piperazin-1-yl)methyl]androstan-17-one] | 47% | 31% | 86% | – | – | – | – | inhibition at 0.1 µM (17β-HSD3 [1]; [4]): 62% |
| CC1CN(C(=O)c2ccc(C(F)(F)F)cc2)C(C)CN1C[C@@]1(O)CC[C@@]2(C)[C@@H](CC[C@@H]3[C@@H]2CC[C@]2(C)C(=O)CC[C@@H]32)C1 (stereo partly drawn) [Compound 13d, (3α,5α)-3-{[(2,5)-2,5-dimethyl-4-{[4-(trifluoromethyl)phenyl]carbonyl}piperazin-1-yl]methyl}-3-hydroxyandrostan-17-one] | – | – | – | – | 22% | 17% | 91% | Intact cells (%) (0.1 μM) (17β-HSD3 [1]; Table 3, 0.1 μM): 61% |
| C[C@]12CC[C@](O)(CN3CCN(S(=O)(=O)c4cccc(C(F)(F)F)c4)CC3)C[C@@H]1CC[C@@H]1[C@@H]2CC[C@]2(C)C(=O)CC[C@@H]12 [Compound 14a, (3α,5α)-3-hydroxy-3-[(4-{[3-(trifluoromethyl)phenyl]sulfonyl}piperazin-1-yl)methyl]androstan-17-one] | 3% | 21% | 82% | N/A (71)^b % | – | – | – | – |
| C[C@]12CC[C@](O)(CN3CCN(S(=O)(=O)c4ccccc4C(F)(F)F)CC3)C[C@@H]1CC[C@@H]1[C@@H]2CC[C@]2(C)C(=O)CC[C@@H]12 [Compound 14b, (3α,5α)-3-hydroxy-3-[(4-{[2-(trifluoromethyl)phenyl]sulfonyl}piperazin-1-yl)methyl]androstan-17-one] | 32% | 45% | 92% | – | – | – | – | inhibition at 0.1 µM (17β-HSD3 [1]; [4]): 45% |
| C[C@]12CC[C@](O)(CN3CCN(S(=O)(=O)c4ccc(C(F)(F)F)cc4)CC3)C[C@@H]1CC[C@@H]1[C@@H]2CC[C@]2(C)C(=O)CC[C@@H]12 [Compound 14c, (3α,5α)-3-hydroxy-3-[(4-{[4-(trifluoromethyl)phenyl]sulfonyl}-piperazin-1-yl)methyl]androstan-17-one] | – | – | – | – | – | – | – | inhibition at 1 µM (17β-HSD10; HEK293, read-out: Inhibition (%) at 1 μM): 14%; inhibition at 0.1 µM (17β-HSD3 [1]; read-out: Intact cells (%) (0.1 μM), Table 3, 0.1 μM): 34%; inhibition at 0.01 µM (17β-HSD3 [2]; read-out: Homo (%) (0.01 μM), Table 3): 21%; inhibition at 0.1 µM (17β-HSD3 [2]; read-out: Homo (%) (0.1 μM), Table 3): 78% |
| CC1CN(S(=O)(=O)c2cccc(C(F)(F)F)c2)C(C)CN1C[C@@]1(O)CC[C@@]2(C)[C@@H](CC[C@@H]3[C@@H]2CC[C@]2(C)C(=O)CC[C@@H]32)C1 (stereo partly drawn) [Compound 15a, (3α,5α)-3-{[(2ξ,5ξ)-2,5-dimethyl-4-{[3-(trifluoromethyl)phenyl]sulfonyl}piperazin-1-yl]methyl}-3-hydroxyandrostan-17-one] | – | – | – | – | 42% | 32% | 91% | Intact cells (%) (0.1 μM) (17β-HSD3 [1]; Table 3, 0.1 μM): 77% |
| CC1CN(S(=O)(=O)c2ccccc2C(F)(F)F)C(C)CN1CC1(O)CCC2(C)C(CCC3C4CCC(=O)C4(C)CCC32)C1 (stereo not shown) [Compound 15c] | – | – | – | – | 18% | 79% | 92% | Intact cells (%) (0.1 μM) (17β-HSD3 [1]; Table 3, 0.1 μM): 47% |
| C[C@]12CC[C@@]3(C[C@@H]1CC[C@@H]1[C@@H]2CC[C@]2(C)C(=O)CC[C@@H]12)CN(CCO)C(=O)O3 [Compound 21, (3R,5S,8R,9S,10S,13S,14S)-3′-(2-hydroxyethyl)-10,13-dimethyltetrahydrodecahydro-2′H-spiro[cyclopenta[α]phenanthrene-3,5′-[1,3]oxazolidine]-2′,17(2H)-dione] | – | – | – | – | – | – | – | IC50 (17β-HSD10): 0.55 µM; Intact cells (%) (0.1 μM), tested in another experiment (17β-HSD3 [1]; Table 4, footnote b, 0.1 μM): 16^b %; inhibition at 0.01 µM (17β-HSD3 [2]; read-out: Homo (%) (0.01 μM), Table 4): 0%; inhibition at 0.1 µM (17β-HSD3 [2]; read-out: Homo (%) (0.1 μM), Table 4): 9%; inhibition at 1 µM (17β-HSD3 [2]; read-out: Homo (%) (1.0 μM), Table 4, 1.0 μM): 38% |

Source: patent US11072632B2, “Inhibitors of 17β-HSD1, 17β-HSD3 and 17β-HSD10” (UNIVERSITÉ LAVAL, priority 2011, dated 2021)
